Test results published in patent publication US9499550B2 (BRISTOL-MYERS SQUIBB COMPANY, priority 2012, dated 2016).
Read-outs that look alike come from different tables or passages of the source.

Legend:
[1] = tested on: HCV genotype 1a (H77 strain) replicon in HUH-7 cells; experiment: HCV replicon luciferase reporter assay, genotype 1a; format: cell-based; settings: Hepatitis C virus, Huh-7, 72 h, 3 days incubation, read-out: LE_1a (EC50, range)
How it was run: (§1)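 Replicon inhibition for both genotypes was measured as Renilla luciferase signal (EnduRen, 7.5 μM final, 2 h) after 3-day, 37° C exposure of replicon-bearing HUH-7 cells in 4% FCS DMEM, 0.5% DMSO. The 1b construct carries S1179I; the 1a H77 construct carries P1496L and S2204I. Twenty-point, 3-fold dilutions were fitted four-parametrically for EC50, and CC50 was taken from multiplexed Cell Titer-Blue.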

[2] = tested on: HCV genotype 1b (Con1) replicon in HUH-7 cells; experiment: HCV replicon luciferase reporter assay, genotype 1b; format: cell-based; settings: Hepatitis C virus, Huh-7, 72 h, 3 days incubation, read-out: LE_1b (EC50, range)
How it was run: as §1

[3] = HCV genotype 1a replicon luciferase
[4] = HCV genotype 1b replicon luciferase
[5] = GETYPE1A, HCV genotype 1a replicon luciferase
[6] = GETYPE1B, HCV genotype 1b replicon luciferase

| SMILES | EC50 [1, 3] [nM] | EC50 [2, 4] [nM] | other results |
| --- | --- | --- | --- |
| CCn1nc(O[C@@H]2C[C@H]3C(=O)N[C@]4(C(=O)NS(=O)(=O)C5CC5)C[C@H]4/C=C\CC[C@@H](C)C[C@@H](C)[C@H](NC(=O)OC(C)(C)C(F)(F)F)C(=O)N3C2)c2ccccc2c1=O [Compound 5067, 1,1,1-trifluoro-2-methylpropan-2-yl((2R,6S,7R,9R,13aS,14aR,16aS,Z)-14a-((cyclopropylsulfonyl)carbamoyl)-2-((3-ethyl-4-oxo-3,4-dihydrophthalazin-1-yl)oxy)-7,9-dimethyl-5,16-dioxo-1,2,3,5,6,7,8,9,10,11,13a,14,14a,15,16,16a-hexadecahydrocyclopropa[e]pyrrolo[1,2-a][1,4]diazacyclopentadecin-6-yl)carbamate] | 4.82 to 103 | 4.82 to 103 | – |
| C[C@@H]1CC/C=C\[C@@H]2C[C@@]2(C(=O)NS(=O)(=O)C2(C)CC2)NC(=O)[C@@H]2C[C@@H](Oc3nccc4c5c(ccc34)N(C)CCO5)CN2C(=O)[C@@H](NC(=O)c2ccc(N(C)C)cc2)[C@H](C)C1 [Compound 5304, (2R,6S,7R,9R,13aS,14aR,16aS,Z)-6-(4-(dimethylamino)benzamido)-7,9-dimethyl-2-((4-methyl-3,4-dihydro-2H-[1,4]oxazino[2,3-f]isoquinolin-7-yl)oxy)-N-((1-methylcyclopropyl)sulfonyl)-5,16-dioxo-1,2,3,5,6,7,8,9,10,11,13a,14,14a,15,16,16a-hexadecahydrocyclopropa[e]pyrrolo[1,2-a][1,4]diazacyclopentadecine-14a-carboxamide] | < 5.46 | < 5.46 | – |
| COc1cc(F)cc2c(O[C@@H]3C[C@H]4C(=O)N[C@]5(C(=O)NS(=O)(=O)C6(C)CC6)C[C@H]5/C=C\CC[C@H](C)C[C@@H](C)[C@H](NC(=O)O[C@@H]5C[C@@H]6C[C@@H]6C5)C(=O)N4C3)nccc12 [Compound 3159, (1R,3r,5S)-bicyclo[3.1.0]hexan-3-yl((2R,6S,7R,9S,13aS,14aR,16aS,Z)-2-((7-fluoro-5-methoxyisoquinolin-1-yl)oxy)-7,9-dimethyl-14a-(((1-methylcyclopropyl)sulfonyl)carbamoyl)-5,16-dioxo-1,2,3,5,6,7,8,9,10,11,13a,14,14a,15,16,16a-hexadecahydrocyclopropa[e]pyrrolo[1,2-a][1,4]diazacyclopentadecin-6-yl)carbamate] | – | – | EC50 ([1]; HCV genotype 1a replicon luciferase assay, range class): 4.82 to 103 nM; EC50 ([2]; HCV genotype 1b replicon luciferase assay, range class): < 5.46 nM |
| CCC1(S(=O)(=O)NC(=O)[C@@]23C[C@H]2/C=C\CC[C@@H](C)C[C@@H](C)[C@H](NC(=O)OC(C)(C)C(F)(F)F)C(=O)N2C[C@H](Oc4nccc5cc(OC)ccc45)C[C@H]2C(=O)N3)CC1 [Compound 4077] | – | – | EC50 [1, 5]: < 5.46 nM; EC50 [2, 6]: < 5.46 nM |
| C[C@@H]1CC/C=C\[C@@H]2C[C@@]2(C(=O)NS(=O)(=O)C2(C)CC2)NC(=O)[C@@H]2C[C@@H](Oc3nccc4c5c(ccc34)OCCO5)CN2C(=O)[C@@H](NC(=O)OC(C)(C)C)[C@H](C)C1 [Compound 5245, tert-butyl ((2R,6S,7R,9R,13aS,14aR,16aS,Z)-2-((2,3-dihydro-[1,4]dioxino[2,3-f]isoquinolin-7-yl)oxy)-7,9-dimethyl-14a-(((1-methylcyclopropyl)sulfonyl)carbamoyl)-5,16-dioxo-1,2,3,5,6,7,8,9,10,11,13a,14,14a,15,16,16a-hexadecahydrocyclopropa[e]pyrrolo[1,2-a][1,4]diazacyclopentadecin-6-yl)carbamate] | < 5.46 | < 5.46 | – |
| CC[C@@H]1C[C@H](C)CC/C=C\[C@@H]2C[C@@]2(C(=O)NS(=O)(=O)C2(C)CC2)NC(=O)[C@@H]2C[C@@H](Oc3ncc(N4CCOCC4)c4cc(OC)c(F)cc34)CN2C(=O)[C@H]1NC(=O)OC(C)(C)C(F)(F)F [Compound 4237] | – | – | EC50 [1, 5]: < 5.46 nM; EC50 [2, 6]: < 5.46 nM |
| CCOc1cnc(O[C@@H]2C[C@H]3C(=O)N[C@]4(C(=O)NS(=O)(=O)C5(C)CC5)C[C@H]4/C=C\CC[C@@H](C)C[C@@H](C)[C@H](NC(=O)Oc4ccccc4)C(=O)N3C2)c2ccccc12 [Compound 4140, phenyl (2R,6S,7R,9R,13aS,14aR,16aS,Z)-2-(4-ethoxyisoquinolin-1-yloxy)-7,9-dimethyl-14a-(1-methylcyclopropylsulfonylcarbamoyl)-5,16-dioxo-1,2,3,5,6,7,8,9,10,11,13a,14,14a,15,16,16a-hexadecahydrocyclopropa[e]pyrrolo[1,2-a][1,4]diazacyclopentadecin-6-ylcarbamate] | < 5.46 | < 5.46 | – |
| C[C@H]1CC/C=C\[C@@H]2C[C@@]2(C(=O)NS(=O)(=O)C2CC2)NC(=O)[C@@H]2C[C@@H](Oc3nccc4c5c(ccc34)N(C)CCO5)CN2C(=O)[C@@H](NC(=O)OC(C)(C)C(F)(F)F)[C@H](C)C1 [Compound 5277, 1,1,1-trifluoro-2-methylpropan-2-yl((2R,6S,7R,9S,13aS,14aR,16aS,Z)-14a-((cyclopropylsulfonyl)carbamoyl)-7,9-dimethyl-2-((4-methyl-3,4-dihydro-2H-[1,4]oxazino[2,3-f]isoquinolin-7-yl)oxy)-5,16-dioxo-1,2,3,5,6,7,8,9,10,11,13a,14,14a,15,16,16a-hexadecahydrocyclopropa[e]pyrrolo[1,2-a][1,4]diazacyclopentadecin-6-yl)carbamate] | < 5.46 | < 5.46 | – |
| CC[C@@H]1C[C@H](C)CC/C=C\[C@@H]2C[C@@]2(C(=O)NS(=O)(=O)C2(CF)CC2)NC(=O)[C@@H]2C[C@@H](Oc3nccc4c5c(ccc34)N(C)CCO5)CN2C(=O)[C@H]1NC(=O)OC(C)(C)C(F)(F)F [Compound 5465, 1,1,1-trifluoro-2-methylpropan-2-yl((2R,6S,7R,9R,13aS,14aR,16aS,Z)-7-ethyl-14a-(((1-(fluoromethyl)cyclopropyl)sulfonyl)carbamoyl)-9-methyl-2-((4-methyl-3,4-dihydro-2H-[1,4]oxazino[2,3-f]isoquinolin-7-yl)oxy)-5,16-dioxo-1,2,3,5,6,7,8,9,10,11,13a,14,14a,15,16,16a-hexadecahydrocyclopropa[e]pyrrolo[1,2-a][1,4]diazacyclopentadecin-6-yl)carbamate] | 1.01 to 5 | 1.01 to 5 | – |
| COc1ccc2c(O[C@@H]3C[C@H]4C(=O)N[C@]5(C(=O)NS(=O)(=O)C6(C)CC6)C[C@H]5/C=C\CC[C@@H](C)C[C@@H](C)[C@H](NC(=O)OC(C)(C)C(F)(F)F)C(=O)N4C3)nc(-c3ccc(N4CCOCC4)cc3)cc2c1 [Compound 5199, 1,1,1-trifluoro-2-methylpropan-2-yl((2R,6S,7R,9R,13aS,14aR,16aS,Z)-2-((6-methoxy-3-(4-morpholinophenyl)isoquinolin-1-yl)oxy)-7,9-dimethyl-14a-(((1-methylcyclopropyl)sulfonyl)carbamoyl)-5,16-dioxo-1,2,3,5,6,7,8,9,10,11,13a,14,14a,15,16,16a-hexadecahydrocyclopropa[e]pyrrolo[1,2-a][1,4]diazacyclopentadecin-6-yl)carbamate] | < 5.46 | < 5.46 | – |
| C[C@@H]1CC/C=C\[C@@H]2C[C@@]2(C(=O)NS(=O)(=O)C2(C)CC2)NC(=O)[C@@H]2C[C@@H](Oc3nc4c(c5ccccc35)CCCO4)CN2C(=O)[C@@H](NC(=O)OC(C)(C)C(F)(F)F)[C@H](C)C1 [Compound 6046, 1,1,1-trifluoro-2-methylpropan-2-yl((2R,6S,7R,9R,13aS,14aR,16aS,Z)-2-((2,3-dihydro-1H-pyrano[2,3-c]isoquinolin-6-yl)oxy)-7,9-dimethyl-14a-(((1-methylcyclopropyl)sulfonyl)carbamoyl)-5,16-dioxo-1,2,3,5,6,7,8,9,10,11,13a,14,14a,15,16,16a-hexadecahydrocyclopropa[e]pyrrolo[1,2-a][1,4]diazacyclopentadecin-6-yl)carbamate] | 1.01 to 5 | 0.51 to 1 | – |
